ChEMBL document CHEMBL1155460, “Prediction of acetylcholinesterase inhibitors and characterization of correlative molecular descriptors by machine learning methods” (Eur J Med Chem, 2010)
pIC50: −log10 of the molar value.

Target: Acetylcholinesterase (Homo sapiens, UniProt P22303)
Sequence (P22303 whole entry): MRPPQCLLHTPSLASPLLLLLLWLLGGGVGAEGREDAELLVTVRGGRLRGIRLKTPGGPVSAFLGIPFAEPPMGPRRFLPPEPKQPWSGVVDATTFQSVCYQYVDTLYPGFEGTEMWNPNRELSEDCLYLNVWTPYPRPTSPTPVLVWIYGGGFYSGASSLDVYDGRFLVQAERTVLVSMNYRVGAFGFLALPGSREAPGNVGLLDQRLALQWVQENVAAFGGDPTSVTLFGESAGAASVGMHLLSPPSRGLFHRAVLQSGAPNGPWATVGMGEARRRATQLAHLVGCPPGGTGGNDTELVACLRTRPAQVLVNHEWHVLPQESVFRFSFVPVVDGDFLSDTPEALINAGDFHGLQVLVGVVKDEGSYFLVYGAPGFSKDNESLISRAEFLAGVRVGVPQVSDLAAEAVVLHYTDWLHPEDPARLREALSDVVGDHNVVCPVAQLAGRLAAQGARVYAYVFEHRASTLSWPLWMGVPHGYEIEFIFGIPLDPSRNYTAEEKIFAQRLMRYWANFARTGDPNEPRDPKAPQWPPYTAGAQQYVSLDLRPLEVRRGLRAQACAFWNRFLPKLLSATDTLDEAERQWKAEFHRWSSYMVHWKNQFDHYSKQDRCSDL

Compound: O=C1c2ccc([N+](=O)[O-])cc2C(=O)N1CCC1CCN(Cc2ccccc2)CC1
- pIC50: 7.90

Compound: O=C1c2ccccc2C(=O)N1CCC1CCN(Cc2ccccc2)CC1
- pIC50: 7.10

Compound: CC(=O)N(C)c1cccc2n1cc(-c1ccc(OC(=O)N(C)C)cc1)[n+]2C
- pIC50: 4.61

Compound: CNC(=O)Oc1ccc(-c2cn3c(C)cccc3[n+]2C)cc1
- pIC50: 5.40

Compound: CNC(=O)Oc1ccc(-c2cn3c(NC(C)=O)cccc3[n+]2C)cc1
- pIC50: 5.96

Compound: CN(C)C(=O)Oc1cccc(-c2cn3ccccc3[n+]2C)c1
- pIC50: 5.15

Compound: Cc1cccc2n1cc(-c1cccc(OC(=O)N(C)C)c1)[n+]2C
- pIC50: 4.62

Compound: CN(C)C(=O)Oc1cccc(-c2cn3c(C(F)(F)F)cccc3[n+]2C)c1
- pIC50: 4.47

Compound: COc1cccc2n1cc(-c1cccc(OC(=O)N(C)C)c1)[n+]2C
- pIC50: 4.69

Compound: CC(=O)Nc1cccc2n1cc(-c1cccc(OC(=O)N(C)C)c1)[n+]2C
- pIC50: 5.60

Compound: CNC(=O)Oc1cccc(-c2cn3ccccc3[n+]2C)c1
- pIC50: 6.46

Compound: COc1ccc2c(c1OC)C(=O)CC2CCC1CCN(Cc2ccccc2)CC1 (stereo unspecified)
- pIC50: 8.10

Compound: CCCCCCCNC(=O)Oc1ccc2c(c1)[C@]1(C)CCN(C)[C@@H]1C2
- pIC50: 6.94

Compound: CCCCCCNC(=O)Oc1ccc2c(c1)[C@]1(C)CCN(C)[C@@H]1C2
- pIC50: 8.00

Compound: CNC(=O)Oc1cccc(-c2cn3c(NC(C)=O)cccc3[n+]2C)c1
- pIC50: 5.35

Compound: CCCCCCCNC(=O)Oc1ccc2c(c1)[C@]1(C)CCN(CC)[C@@H]1C2
- pIC50: 7.24

Compound: CN1CCCc2cc(C(=O)CCC3CCN(Cc4ccccc4)CC3)ccc21
- pIC50: 7.62

Compound: O=C(CCC1CCN(Cc2ccccc2)CC1)c1ccc2c(c1)CCCN2
- pIC50: 7.27

Compound: O=C(CCC1CCN(Cc2ccccc2)CC1)c1ccc2c(c1)CCCN2c1ccccc1
- pIC50: 7.27

Compound: CC(=O)Nc1cccc2n1cc(-c1ccc(OC(=O)N(C)C)cc1)[n+]2C
- pIC50: 6.15

Compound: O=C(CCC1CCN(Cc2ccccc2)CC1)c1ccc2c(c1)N(c1ccccc1)CCC2
- pIC50: 5.83

Compound: O=C(Nc1ccccc1)c1ccc2c(c1)C(=O)N(CCC1CCN(Cc3ccccc3)CC1)C2=O
- pIC50: 8.66

Compound: CNC(=O)Oc1ccc(-c2cn3ccccc3[n+]2C)cc1
- pIC50: 4.71

Compound: CCN1CC[C@@]2(C)c3cc(OC(=O)NC)ccc3C[C@@H]12
- pIC50: 7.42

Compound: c1ccc(CN2CCC(CNc3nsc4ccccc34)CC2)cc1
- pIC50: 7.00

Compound: Cc1cn2cc(C(N)=O)ccc2[n+]1C
- pIC50: 4.57

Compound: CN(C)C(=O)Oc1ccc(-c2cn3ccccc3[n+]2C)cc1
- pIC50: 4.77

Compound: CN(C)C(=O)Oc1ccc(-c2cn3c(C(F)(F)F)cccc3[n+]2C)cc1
- pIC50: 5.00

Compound: CCN1CC[C@@]2(C)c3cc(OC(=O)Nc4ccccc4)ccc3C[C@@H]12
- pIC50: 6.75

Compound: CCCCCCNC(=O)Oc1ccc2c(c1)[C@]1(C)CCN(CCC)[C@@H]1C2
- pIC50: 7.21

Compound: CCCCCCCNC(=O)Oc1ccc2c(c1)[C@]1(C)CCN(Cc3ccccc3)[C@@H]1C2
- pIC50: 6.30

Compound: CCCCCCNC(=O)Oc1ccc2c(c1)C1CCN(CCC)C1C2 (stereo unspecified)
- pIC50: 6.26

Compound: CN(C)C(=O)Nc1cccc2n1cc(-c1ccc(OC(=O)N(C)C)cc1)[n+]2C
- pIC50: 5.80

Compound: COc1cccc2n1cc(-c1ccc(OC(=O)N(C)C)cc1)[n+]2C
- pIC50: 5.09

Compound: CN(C)C(=O)Oc1ccc(-c2cn3c(NC=O)cccc3[n+]2C)cc1
- pIC50: 5.92

Compound: CN(C)C(=O)Oc1ccc(-c2cn3c(NC(=O)c4ccccc4)cccc3[n+]2C)cc1
- pIC50: 6.70

Compound: CNC(=O)Nc1cccc2n1cc(-c1ccc(OC(=O)N(C)C)cc1)[n+]2C
- pIC50: 5.87

Compound: CCCCNC(=O)Oc1ccc2c(c1)[C@]1(C)CCN(CC)[C@@H]1C2
- pIC50: 7.05

Compound: CCCNC(=O)Oc1ccc2c(c1)[C@]1(C)CCN(CC)[C@@H]1C2
- pIC50: 6.81

Compound: CCN1CC[C@@]2(C)c3cc(OC(=O)NC(C)c4ccccc4)ccc3C[C@@H]12 (stereo partly specified)
- pIC50: 5.88

Compound: CN(C)C(=O)Oc1cccc(-c2cn3c(Cl)cccc3[n+]2C)c1
- pIC50: 4.90

Compound: C[n+]1c(-c2ccccc2)cn2cc(C(N)=O)ccc21
- pIC50: 5.02

Compound: COC(=O)Nc1ccc2n(c1)cc(-c1ccccc1)[n+]2C
- pIC50: 4.30

Compound: COC(=O)Nc1cccc2n1cc(-c1ccc(OC(=O)N(C)C)cc1)[n+]2C
- pIC50: 5.96

Compound: c1ccc(CN2CCC(CNc3n[nH]c4ccccc34)CC2)cc1
- pIC50: 6.92

Compound: CCCCCCCNC(=O)Oc1ccc2c(c1)[C@]1(C)CCN(CCC)[C@@H]1C2
- pIC50: 7.03

Compound: CCCCCCNC(=O)Oc1ccc2c(c1)[C@@H]1CCN(CC)[C@@H]1C2
- pIC50: 6.68

Compound: CCCCNC(=O)Oc1ccc2c(c1)C1CCN(CC)C1C2 (stereo unspecified)
- pIC50: 5.97

Compound: CCCNC(=O)Oc1ccc2c(c1)C1CCN(CC)C1C2 (stereo unspecified)
- pIC50: 5.66

Compound: CCN1CCC2c3cc(OC(=O)NC)ccc3CC21 (stereo unspecified)
- pIC50: 6.60

Compound: CCCCCCCNC(=O)Oc1ccc2c(c1)C1CCN(CCC)C1C2 (stereo unspecified)
- pIC50: 6.20

Compound: CN(C)C(=O)Oc1ccc(-c2cn3c(Cl)cccc3[n+]2C)cc1
- pIC50: 4.90

Compound: Cc1cccc2n1cc(-c1ccc(OC(=O)N(C)C)cc1)[n+]2C
- pIC50: 5.89

Compound: O=C(CCC1CCN(Cc2ccccc2)CC1)c1ccc2c(c1)CCN2c1ccccc1
- pIC50: 7.17

Compound: CCCCCCCNC(=O)Oc1ccc2c(c1)[C@@H]1CCN(CC)[C@@H]1C2
- pIC50: 6.42

Compound: O=C1c2ccc([N+](=O)[O-])cc2C(=O)N1CCC1CCN(Cc2ccc(Cl)cc2)CC1
- pIC50: 6.62

Compound: CC(=O)N(C)CCC1CCN(Cc2ccccc2)CC1
- pIC50: 6.18

Compound: O=C(c1ccc([N+](=O)[O-])cc1)N(CCC1CCN(Cc2ccccc2)CC1)c1ccccc1
- pIC50: 8.27

Compound: COc1cccc(N(CCC2CCN(Cc3ccccc3)CC2)C(C)=O)c1
- pIC50: 7.34

Compound: O=C(Nc1ccc2c(c1)C(=O)N(CCC1CCN(Cc3ccccc3)CC1)C2=O)c1ccccc1
- pIC50: 8.92

Compound: O=C(c1ccc(F)cc1)N(CCC1CCN(Cc2ccccc2)CC1)c1ccccc1
- pIC50: 7.74

Compound: O=C(C1CCCCC1)N(CCC1CCN(Cc2ccccc2)CC1)c1ccccc1
- pIC50: 5.03

Compound: COc1ccc2c(c1)C(=O)N(CCC1CCN(Cc3ccccc3)CC1)C2=O
- pIC50: 8.10

Compound: CN1CCC(CCN2C(=O)c3ccc([N+](=O)[O-])cc3C2=O)CC1
- pIC50: 5.17

Compound: CC(=O)N(CCC1CCN(Cc2ccccc2)CC1)c1cccc(F)c1
- pIC50: 7.19

Compound: CC(=O)N(CCC1CCN(Cc2ccccc2)CC1)c1ccncc1
- pIC50: 6.97

Compound: COc1ccc(N(CCC2CCN(Cc3ccccc3)CC2)C(C)=O)cc1
- pIC50: 6.15

Compound: CCC(=O)N(CCC1CCN(Cc2ccccc2)CC1)c1ccccc1
- pIC50: 6.08

Compound: COc1ccc(C(=O)N(CCC2CCN(Cc3ccccc3)CC2)c2ccccc2)cc1
- pIC50: 6.23

Compound: O=C(CCC1CCN(Cc2ccccc2Cl)CC1)c1ccc2c(c1)CCN2
- pIC50: 7.12

Compound: Cc1cccc(CN2CCC(CCC(=O)c3ccc4c(c3)CCN4)CC2)c1
- pIC50: 7.30

Compound: COc1ccccc1CN1CCC(CCC(=O)c2ccc3c(c2)CCN3)CC1
- pIC50: 6.09

Compound: CCCN1CCCCc2ccc(C(=O)CCC3CCN(Cc4ccccc4)CC3)cc21
- pIC50: 5.88

Compound: O=C(CCC1CCN(Cc2ccccc2)CC1)c1ccc2c(c1)N(Cc1ccccc1)CC2
- pIC50: 6.07

Compound: O=C(CCC1CCN(Cc2cccc([N+](=O)[O-])c2)CC1)c1ccc2c(c1)NCCCC2
- pIC50: 6.41

Compound: O=C(CCC1CCN(Cc2cccc(F)c2)CC1)c1ccc2c(c1)NCCCC2
- pIC50: 6.84

Compound: CCN1CCc2cc(C(=O)CCC3CCN(Cc4ccccc4)CC3)ccc21
- pIC50: 7.96

Compound: O=C(CCC1CCN(Cc2cccc(F)c2)CC1)c1ccc2c(c1)CCN2
- pIC50: 7.80

Compound: COc1ccccc1CN1CCC(CCC(=O)c2ccc3c(c2)NCCCC3)CC1
- pIC50: 5.58

Compound: CCN1CCCCc2ccc(C(=O)CCC3CCN(Cc4ccccc4)CC3)cc21
- pIC50: 6.42

Compound: CN1CCc2cc(C(=O)CCC3CCN(Cc4ccccc4)CC3)ccc21
- pIC50: 8.00

Compound: O=C1c2ccc([N+](=O)[O-])cc2C(=O)N1CC1CCN(Cc2ccccc2)CC1
- pIC50: 5.52

Compound: O=C1c2ccccc2CN1CCC1CCN(Cc2ccccc2)CC1
- pIC50: 7.01

Compound: COc1ccc(CN2CCC(CCN3C(=O)c4ccc([N+](=O)[O-])cc4C3=O)CC2)cc1
- pIC50: 6.36

Compound: CC(=O)N(CCC1CCN(Cc2ccccc2)CC1)c1ccc(F)cc1
- pIC50: 6.69

Compound: O=C(c1ccncc1)N(CCC1CCN(Cc2ccccc2)CC1)c1ccccc1
- pIC50: 7.19

Compound: CC(=O)N(CCC1CCN(Cc2ccccc2)CC1)c1ccccc1
- pIC50: 7.28

Compound: CCCCCCNC(=O)Oc1ccc2c(c1)[C@]1(C)CCN(CC)[C@@H]1C2
- pIC50: 7.35

Compound: O=C1c2ccc([N+](=O)[O-])cc2C(=O)N1C1CCN(Cc2ccccc2)CC1
- pIC50: 4.57

Compound: O=C(CCC1CCN(Cc2cccc(Cl)c2)CC1)c1ccc2c(c1)NCCCC2
- pIC50: 6.48

Compound: CC(=O)Nc1ccc2c(c1)C(=O)N(CCC1CCN(Cc3ccccc3)CC1)C2=O
- pIC50: 8.55

Compound: O=C(c1ccccc1)N(CCC1CCN(Cc2ccccc2)CC1)c1ccccc1
- pIC50: 7.46

Compound: COc1cccc(CN2CCC(CCC(=O)c3ccc4c(c3)NCCCC4)CC2)c1
- pIC50: 6.07

Compound: CCCCCN1CCc2cc(C(=O)CCC3CCN(Cc4ccccc4)CC3)ccc21
- pIC50: 7.33

Compound: COc1cccc(CN2CCC(CCC(=O)c3ccc4c(c3)CCN4)CC2)c1
- pIC50: 5.57

Compound: O=C(CCC1CCN(Cc2ccccc2)CC1)c1ccc2c(c1)NCCC2
- pIC50: 6.79

Compound: O=C(CCC1CCN(Cc2ccccc2F)CC1)c1ccc2c(c1)CCN2
- pIC50: 7.37

Compound: Cc1cccc(CN2CCC(CCC(=O)c3ccc4c(c3)NCCCC4)CC2)c1
- pIC50: 6.65

Compound: O=C(CCC1CCN(Cc2ccccc2)CC1)c1ccc2c(c1)NCC2
- pIC50: 6.95

Compound: CCCN1CCc2cc(C(=O)CCC3CCN(Cc4ccccc4)CC3)ccc21
- pIC50: 7.66

Compound: O=C(CCC1CCN(Cc2ccccc2)CC1)c1ccc2c(c1)NCCCCC2
- pIC50: 6.90

Compound: CN1CCCCc2ccc(C(=O)CCC3CCN(Cc4ccccc4)CC3)cc21
- pIC50: 7.09

Compound: O=C(CCC1CCN(Cc2cccc(Cl)c2)CC1)c1ccc2c(c1)CCN2
- pIC50: 7.23

Compound: O=C(CCC1CCN(Cc2ccc(F)cc2)CC1)c1ccc2c(c1)CCN2
- pIC50: 7.05

Compound: CCCCN1CCc2cc(C(=O)CCC3CCN(Cc4ccccc4)CC3)ccc21
- pIC50: 7.54

Compound: O=C(CCC1CCN(Cc2ccccc2)CC1)c1ccc2c(c1)N(Cc1ccccc1)CCCC2
- pIC50: 5.50

Compound: O=C(CCC1CCN(Cc2ccccc2)CC1)c1ccc2c(c1)CCN2
- pIC50: 7.70

Compound: O=C(CCC1CCN(Cc2ccccc2)CC1)c1ccc2c(c1)CCCCN2
- pIC50: 6.90

Compound: O=C(CCC1CCN(Cc2ccc(Cl)cc2)CC1)c1ccc2c(c1)CCN2
- pIC50: 5.20

Compound: O=C(CCC1CCN(Cc2ccc(F)cc2)CC1)c1ccc2c(c1)NCCCC2
- pIC50: 6.41

Compound: CN1CCCc2ccc(C(=O)CCC3CCN(Cc4ccccc4)CC3)cc21
- pIC50: 7.44
